“And” between values parts separate entries of the source, which are not always exact repeats. Equal entries are not always repeated.
Legend:
MAO-A [1] = molecular target: T1, MAO-A (Cavia porcellus, UniProt H0UVA2); assay: In vivo MAO-A inhibition in guinea pig cortex (hippocampus) after 5 s.c. treatments; details: sc, read-out: inhibition of MAO-A activity
T1 sequence (H0UVA2 1-461): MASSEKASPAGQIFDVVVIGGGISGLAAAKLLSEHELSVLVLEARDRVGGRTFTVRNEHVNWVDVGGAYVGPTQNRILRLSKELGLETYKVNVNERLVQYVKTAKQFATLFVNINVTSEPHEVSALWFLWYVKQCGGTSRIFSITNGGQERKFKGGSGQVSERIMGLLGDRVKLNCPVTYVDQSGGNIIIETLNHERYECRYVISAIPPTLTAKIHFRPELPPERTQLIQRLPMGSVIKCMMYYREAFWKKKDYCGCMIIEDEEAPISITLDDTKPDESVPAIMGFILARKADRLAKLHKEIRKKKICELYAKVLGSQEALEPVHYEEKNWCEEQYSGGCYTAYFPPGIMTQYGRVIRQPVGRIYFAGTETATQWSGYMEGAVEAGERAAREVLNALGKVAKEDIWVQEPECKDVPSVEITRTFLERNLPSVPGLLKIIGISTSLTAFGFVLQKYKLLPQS
Description: Hippocampal homogenates containing enzyme were prepared, and assays in vitro for MAO-A and MAO-B activity.

MAO-B [2] = molecular target: T2, MAO-B (Cavia porcellus, UniProt P58028); assay: MAO-B inhibition in guinea pig hippocampal homogenates in vitro; assay type: biochemical; details: for IC50: IC50 Values for the Inhibition of MAO-B, Guinea Pig Hippocampal Cortex; for reduction in potency compared to selegiline, MAO-B, Guinea Pig Hippocampal Cortex: figure in parentheses
T2 construct: MAO-B (^14C-phenylethylamine) by human platelets and guinea pig hippocampal homogenates; from tissue; host or cells: guinea pig hippocampal homogenates
T2 sequence (P58028 1-520): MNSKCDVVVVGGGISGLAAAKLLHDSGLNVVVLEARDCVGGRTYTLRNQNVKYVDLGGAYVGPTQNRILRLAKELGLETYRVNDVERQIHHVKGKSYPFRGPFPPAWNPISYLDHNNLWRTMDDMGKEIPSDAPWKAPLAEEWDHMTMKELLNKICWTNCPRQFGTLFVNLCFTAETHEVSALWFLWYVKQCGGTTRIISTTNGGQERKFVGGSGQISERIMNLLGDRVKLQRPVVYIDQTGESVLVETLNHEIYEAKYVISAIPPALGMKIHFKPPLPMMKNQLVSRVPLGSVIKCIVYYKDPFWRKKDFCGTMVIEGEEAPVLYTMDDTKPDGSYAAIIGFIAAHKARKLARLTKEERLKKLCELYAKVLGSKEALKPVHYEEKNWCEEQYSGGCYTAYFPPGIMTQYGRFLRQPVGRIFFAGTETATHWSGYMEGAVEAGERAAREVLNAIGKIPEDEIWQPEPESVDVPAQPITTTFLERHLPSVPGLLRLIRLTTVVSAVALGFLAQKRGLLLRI
Excerpt: (§1) Human platelet MAO is comprised exclusively of the type-B isoform of the enzyme. […] The present study also examined the two enantiomers of DMS for inhibitory activity with respect to the MAO-A and MAO-B in guinea pig hippocampal tissue. Guinea pig brain tissue is an excellent animal model for studying brain dopamine metabolism, the enzyme kinetics of the multiple forms of MAO and the inhibitory properties of novel agents that interact with these enzymes. The multiple forms of MAO in this animal species show similar kinetic properties to those found in human brain tissue. Finally, the test agents were administered to guinea pigs and the extent to which they might act as inhibitors of brain MAO in vivo was assessed.
(§2) In vitro: The test system utilized the in vitro conversion of specific substrates of MAO-A (^14C-serotonin) in guinea pig hippocampal homogenates or MAO-B (^14C-phenylethylamine) by human platelets and guinea pig hippocampal homogenates. […] A percent inhibition was calculated from these values.

MAO-A [3] = molecular target: T3, MAO-A (Rattus norvegicus, UniProt P21396); assay: MAO-A inhibition in rat brain tissue; assay type: biochemical; parameters: from tissue; host or cells: rat cortex mitochondrial-rich fractions
T3 sequence (P21396 1-526): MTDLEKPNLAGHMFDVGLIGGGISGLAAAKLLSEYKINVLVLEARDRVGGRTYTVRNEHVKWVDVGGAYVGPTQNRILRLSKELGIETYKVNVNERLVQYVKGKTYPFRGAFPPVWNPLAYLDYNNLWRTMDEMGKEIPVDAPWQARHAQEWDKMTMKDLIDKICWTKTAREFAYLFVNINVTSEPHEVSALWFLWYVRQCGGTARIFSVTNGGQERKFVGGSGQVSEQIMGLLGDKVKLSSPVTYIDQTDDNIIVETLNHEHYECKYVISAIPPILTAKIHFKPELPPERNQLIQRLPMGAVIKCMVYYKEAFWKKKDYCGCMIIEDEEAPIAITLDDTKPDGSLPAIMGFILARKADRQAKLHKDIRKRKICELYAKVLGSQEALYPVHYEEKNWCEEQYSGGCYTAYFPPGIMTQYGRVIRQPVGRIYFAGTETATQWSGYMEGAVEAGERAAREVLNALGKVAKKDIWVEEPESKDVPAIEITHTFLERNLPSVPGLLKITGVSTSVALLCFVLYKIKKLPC

[4] = system: rat embryonic mesencephalic cells; assay: [3H]dopamine uptake, medium change (glutamate receptor dependent) model of cell death
Description: Preparations are then added to 10 ml Ecoscint (National Diagnostics) and counted in a scintillation spectrometer.
(§3) In these experiments, cells were plated and allowed to stabilize for several days.

MAO-A [5] = molecular target: T1, MAO-A; assay: MAO-A inhibition in guinea pig hippocampal homogenates in vitro; assay type: biochemical; parameters: specific substrates of MAO-A (^14C-serotonin) in guinea pig hippocampal homogenates; from tissue; host or cells: guinea pig hippocampal homogenates; details: for reduction in potency compared to selegiline, MAO-A: figure in parentheses, times less potent
Excerpt: as §1, §2

MAO-B [6] = molecular target: T2, MAO-B; assay: In vivo brain MAO-B inhibition in guinea pig hippocampus after 5 daily s.c. doses; details: preliminary studies
Description: FIG. 20: In vivo MAO-B Inhibition in Guinea Pig Hippocampus. […] Animals were then sacrificed and the MAO-B activity in the hippocampus portion of the brain was determined. […] The plots were used to estimate the ID50 dosage for each agent.
Each enantiomer of DMS was administered in vivo by subcutaneous injection once a day for five consecutive days, and inhibition of brain MAO-B activity was then determined.

[7] = system: rat embryonic mesencephalic cells; assay: TH positive cell survival, medium change (glutamate receptor dependent) model of cell death
Description: as §3

[8] = system: cultured rat mesencephalic cells; assay: TH immunochemistry after 100 μM NMDA exposure
Description: Rat mesencephalic cell cultures were exposed to 100 μM NMDA and incubated as described above in connection with FIG. 16.

dopamine uptake system = molecular target: T4, dopamine uptake system (Rattus norvegicus, UniProt P23977); assay: Inhibition of tritiated dopamine uptake in rat neostriatal nerve-terminal (synaptosome) preparation; assay type: biochemical
T4 construct: An in vitro nerve-terminal preparation (symptosome-preparation) was obtained from fresh rat neostriatal brain tissue; from tissue; host or cells: rat neostriatal synaptosomes
T4 sequence (P23977 whole entry): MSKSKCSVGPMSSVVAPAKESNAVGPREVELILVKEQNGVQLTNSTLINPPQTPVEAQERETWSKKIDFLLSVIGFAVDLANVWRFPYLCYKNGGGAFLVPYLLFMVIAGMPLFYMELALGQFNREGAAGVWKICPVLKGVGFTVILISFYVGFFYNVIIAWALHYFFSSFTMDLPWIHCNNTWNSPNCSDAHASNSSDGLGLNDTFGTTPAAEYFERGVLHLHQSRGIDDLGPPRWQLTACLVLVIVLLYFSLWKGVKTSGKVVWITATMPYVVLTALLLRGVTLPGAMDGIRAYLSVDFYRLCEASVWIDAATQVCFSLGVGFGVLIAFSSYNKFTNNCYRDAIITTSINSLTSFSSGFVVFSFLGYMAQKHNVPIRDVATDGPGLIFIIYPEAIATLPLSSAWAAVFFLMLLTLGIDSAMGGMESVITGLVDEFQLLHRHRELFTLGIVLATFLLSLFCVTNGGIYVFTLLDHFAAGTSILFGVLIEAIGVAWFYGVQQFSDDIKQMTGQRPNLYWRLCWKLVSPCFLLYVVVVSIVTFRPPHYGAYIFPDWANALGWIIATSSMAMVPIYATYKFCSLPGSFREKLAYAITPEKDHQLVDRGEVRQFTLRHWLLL
Description: An in vitro nerve terminal preparation (synaptosome preparation) was prepared using fresh rat neostriatal tissue.
Transport by dopamine nerve-terminals was estimated by measuring the uptake of tritiated dopamine.

cerebral infarction = details: given orally; patients with subarachnoid hemorrhage and cerebral vasospasm; cited from earlier work

C#CCNC(C)Cc1ccccc1 (single isomer, unassigned) [R(−)DMS, R(−)-desmethylselegiline]
inhibition at 3 mg/kg (MAO-A [1]): 29.8%
IC50 (MAO-B [2]): 0.06 µM
reduction in potency compared to selegiline, MAO-B, Guinea Pig Hippocampal Cortex (MAO-B [2]): 60 nM (60)
IC50 (MAO-A [3]): 70 µM
times less potent than selegiline in inhibiting MAO-A (MAO-A [3]; in vitro, rat brain tissue): approximately 39 times
neuron protection by measurement of dopamine uptake (FIG. 15) ([4]; 5 μM): neuron protection
more axonal growth and terminal axonal survival compared to untreated control cells ([4]; 10 μM, medium change model): 40%
neuron protection by measurement of dopamine uptake (FIG. 15) ([4]; 50 μM): neuron protection
IC50 (MAO-A [5]): 50 µM
MAO-A % Reduction 0 ± SEM (MAO-A [5]; Concentration 300 nM): 4.8 ± 2.1%
MAO-A % Reduction 0 ± SEM (MAO-A [5]; Concentration 1 μM): 4.2 ± 1.5%
MAO-A % Reduction 0 ± SEM (MAO-A [5]; Concentration 3 μM): 10.5 ± 2.0%
MAO-A % Reduction 0 ± SEM (MAO-A [5]; Concentration 10 μM): 19.0 ± 1.3%
MAO-A % Reduction 0 ± SEM (MAO-A [5]; Concentration 100 μM): 64.2 ± 1.5%
MAO-A % Reduction 0 ± SEM (MAO-A [5]; Concentration 1 mM): 96.5 + 1.2%
reduction in potency compared to selegiline, MAO-A (MAO-A [5]): 20
times less potent than selegiline, brain MAO-B in vivo (MAO-B [6]): about 10 times

C#CCNC(C)Cc1ccccc1 (single isomer, unassigned) [S(+)DMS, S(+)-desmethylselegiline]
TH positive cells, % control ([7]; 0.5 μM, Mean): 143.5 % control
TH positive cells, cells/cm^2 ([7]; 0.5 μM, Mean): 403.1 cells/cm^2
TH positive cells, % control ([7]; 0.5 μM, single sample): 152.7 % control and 125.2 % control
TH positive cells, cells/cm^2 ([7]; 0.5 μM, single sample): 402.5 cells/cm^2 and 330.0 cells/cm^2 and 477.5 cells/cm^2
TH positive cells, % control ([7]; 5.0 μM, Mean): 130.6 % control
TH positive cells, cells/cm^2 ([7]; 5.0 μM, Mean): 344.4 cells/cm^2
TH positive cells, % control ([7]; 5.0 μM, single sample): 129.9 % control and 135.6 % control and 123.3 % control and 133.7 % control
TH positive cells, cells/cm^2 ([7]; 5.0 μM, single sample): 342.5 cells/cm^2 and 357.5 cells/cm^2 and 325.0 cells/cm^2 and 352.5 cells/cm^2
TH positive cells, % control ([7]; 50 μM, Mean): 109.8 % control
TH positive cells, cells/cm^2 ([7]; 50 μM, Mean): 289.4 cells/cm^2
TH positive cells, % control ([7]; 50 μM, single sample): 116.6 % control and 94.8 % control and 118.5 % control and 109.1 % control
TH positive cells, cells/cm^2 ([7]; 50 μM, single sample): 307.5 cells/cm^2 and 250.0 cells/cm^2 and 312.5 cells/cm^2 and 287.5 cells/cm^2
IC50 (MAO-B [2]): 1.2 µM
reduction in potency compared to selegiline, MAO-B, Guinea Pig Hippocampal Cortex (MAO-B [2]): 1200 nM (1200)
inhibition at 0.3 µM (MAO-B [2]; read-out: MAO-B % Inhibition 0 ± SEM, Concentration 300 nM): 18.7 ± 2.1%
inhibition at 3 µM (MAO-B [2]; read-out: MAO-B % Inhibition 0 ± SEM, Concentration 3 μM): 77.1 ± 6%
Dopamine uptake, % control ([4]; 0.5 μM, Mean): 167.2 % control
Dopamine uptake, counts/min ([4]; 0.5 μM, Mean): 35115.5 counts/min
Dopamine uptake, % control ([4]; 0.5 μM, single sample): 170.6 % control and 152.8 % control and 157.4 % control and 188.2 % control
Dopamine uptake, counts/min ([4]; 0.5 μM, single sample): 35830 counts/min and 32074 counts/min and 33042 counts/min and 39516 counts/min
Dopamine uptake, % control ([4]; 5.0 μM, Mean): 180.5 % control
Dopamine uptake, counts/min ([4]; 5.0 μM, Mean): 37889.75 counts/min
Dopamine uptake, % control ([4]; 5.0 μM, single sample): 171.3 % control and 173.7 % control and 181.7 % control and 195.1 % control
Dopamine uptake, counts/min ([4]; 5.0 μM, single sample): 35976 counts/min and 36476 counts/min and 38143 counts/min and 40964 counts/min
Dopamine uptake, % control ([4]; 50 μM, Mean): 157.3 % control
Dopamine uptake, counts/min ([4]; 50 μM, Mean): 33016.75 counts/min
Dopamine uptake, % control ([4]; 50 μM, single sample): 123.8 % control and 177.7 % control and 146.3 % control and 181.1 % control
Dopamine uptake, counts/min ([4]; 50 μM, single sample): 26002 counts/min and 37320 counts/min and 30725 counts/min and 38020 counts/min
MAO-A % Reduction 0 ± SEM (MAO-A [5]; Concentration 1 nM): 92.7 ± 2.5%
MAO-A % Reduction 0 ± SEM (MAO-A [5]; Concentration 10 nM): 99.6 ± 0.35%
MAO-A % Reduction 0 ± SEM (MAO-A [5]; Concentration 1 μM): 3.3 + 1.5%
MAO-A % Reduction 0 ± SEM (MAO-A [5]; Concentration 3 μM): 4.3 ± 1.0%
MAO-A % Reduction 0 ± SEM (MAO-A [5]; Concentration 10 μM): 10.5 ± 1.47%
MAO-A % Reduction 0 ± SEM (MAO-A [5]; Concentration 100 μM): 48.4 ± 1.8%
reduction in potency compared to selegiline, MAO-A (MAO-A [5]): 40
TH positive cells, % control ([8]; 0.5 μM, Mean): 182.3 % control
TH positive cells, cells/cm^2 ([8]; 0.5 μM, Mean): 171.67 cells/cm^2
TH positive cells, % control ([8]; 0.5 μM, single sample): 135.4 % control and 223.0 % control and 188.5 % control
TH positive cells, cells/cm^2 ([8]; 0.5 μM, single sample): 127.5 cells/cm^2 and 210 cells/cm^2 and 177.5 cells/cm^2
TH positive cells, % control ([8]; 5.0 μM, Mean): 197.8 % control
TH positive cells, cells/cm^2 ([8]; 5.0 μM, Mean): 186.25 cells/cm^2
TH positive cells, % control ([8]; 5.0 μM, single sample): 204.4 % control and 199.1 % control and 183.2 % control
TH positive cells, cells/cm^2 ([8]; 5.0 μM, single sample): 192.5 cells/cm^2 and 187.5 cells/cm^2 and 172.5 cells/cm^2
TH positive cells, % control ([8]; 50 μM, Mean): 276.1 % control
TH positive cells, cells/cm^2 ([8]; 50 μM, Mean): 260 cells/cm^2
TH positive cells, % control ([8]; 50 μM, single sample): 315.9 % control and 215.0 % control and 337.2 % control and 236.3 % control
TH positive cells, cells/cm^2 ([8]; 50 μM, single sample): 297.5 cells/cm^2 and 202.5 cells/cm^2 and 317.5 cells/cm^2 and 222.5 cells/cm^2
times more potent than either selegiline or R(−)DMS in inhibiting dopamine uptake (dopamine uptake system): 4-5 times
times less potent than selegiline, brain MAO-B in vivo (MAO-B [6]): about 10 times

C#CCN(C)Cc1ccccc1 [Pargyline, pargyline, reference compound]
neuron protection by measurement of dopamine uptake (FIG. 15) ([4]; at the concentrations used (0.5, 5 and 50 μM)): did not appear to offer any protection

C#CCN(C)CCCOc1ccc(Cl)cc1Cl [clorgyline, reference compound]
neuron protection by measurement of dopamine uptake (FIG. 15) ([4]; 50 μM): protected

C[C@]12N[C@H](Cc3ccccc31)c1ccccc12 [MK-801, reference compound]
neuron protection by measurement of dopamine uptake (FIG. 15) ([4]; 10 μM): protection was also obtained

COCCOC(=O)C1=C(C)NC(C)=C(C(=O)OC(C)C)C1c1cccc([N+](=O)[O-])c1 (stereo not shown) [Nimodipine]
incidence of cerebral infarction (cerebral infarction): lower by one third

From patent US20060167110A1 (priority 1995, published 2006)
